Where a name gives a salt, the structure may show the parent alone.
Biological target: T1, recombinant human cytosolic PEPCK (GST-PEPCK) (Homo sapiens, UniProt P35558)
T1 construct: made in house; host or cells: E. coli
T1 sequence (P35558 1-622): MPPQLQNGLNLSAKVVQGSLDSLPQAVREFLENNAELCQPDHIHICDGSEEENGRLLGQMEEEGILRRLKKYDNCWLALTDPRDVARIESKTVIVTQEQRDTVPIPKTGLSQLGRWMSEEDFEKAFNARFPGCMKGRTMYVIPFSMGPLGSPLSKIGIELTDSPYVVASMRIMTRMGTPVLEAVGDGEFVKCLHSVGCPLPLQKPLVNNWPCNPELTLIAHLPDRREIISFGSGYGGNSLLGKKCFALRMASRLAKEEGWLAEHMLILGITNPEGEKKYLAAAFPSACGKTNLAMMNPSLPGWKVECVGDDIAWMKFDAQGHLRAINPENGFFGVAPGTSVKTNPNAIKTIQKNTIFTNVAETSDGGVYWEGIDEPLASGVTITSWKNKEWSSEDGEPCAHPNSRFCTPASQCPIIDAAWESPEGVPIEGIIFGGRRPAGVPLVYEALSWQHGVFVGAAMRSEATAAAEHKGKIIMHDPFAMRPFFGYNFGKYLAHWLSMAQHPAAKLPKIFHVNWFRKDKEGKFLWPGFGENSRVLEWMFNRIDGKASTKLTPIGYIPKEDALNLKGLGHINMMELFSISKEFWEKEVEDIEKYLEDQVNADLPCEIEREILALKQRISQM
Experiment: PEPCK enzyme assay (coupled to pyruvate kinase / lactate dehydrogenase, absorbance at 340 nm)
Format: biochemical
Settings: in vitro PEPCK enzymatic assay; GTP at 3 fold and OAA at 10 fold Km; final DMSO 10%; room temperature, twenty minutes
Protocol: E. coli cells expressing GST-PEPCK were suspended in 5 volumes of lysis buffer (50 mM Tris-hydroxymethyl aminomethyl (TRIS), 150 mM sodium chloride (NaCl), 10 mM ethylene-diametetraacetic acid (EDTA), 5 mM dithiothreitol(DTT), 1% Nonidet P-40, pH 7.4) in the presence of protease inhibitors, incubated with lysozyme at 200 micrograms/ml for 30 min. at room temperature, and sonicated 4×30 seconds at 4 degrees C. After centrifugation at 12,000×g for 20 min. to remove insoluble material, the supernatant was loaded onto glutathione Sepharose (Pharmacia), washed with lysis buffer followed by washing with lysis buffer in the absence of NP-40. GST-PEPCK was eluted with the same buffer containing 20 mM glutathione. The eluted protein was concentrated and dialyzed against 25 mM Hepes(N-[2-hydroxyethyl]piperazine-N′[2-ethanesulfonic acid), 150 mM NaCl, 2.5 mM EDTA, 5 mM DTT, 30% glycerol, pH 7.4, and stored at −20° C.
The inhibitory effect of the compounds of the present invention on PEPCK enzymatic activity was determined using recombinant human cytosolic PEPCK, expressed and purified from E.coli as a GST-fusion. Guanosine triphosphate (GTP) and manganese dependent PEPCK enzyme activity catalyzed the decarboxylation of oxalacetate leading to the formation of guanosine diphosphate (GDP) and phosphoenol pyruvate (PEP). This reaction is coupled to pyruvate kinase and lactate dehydrogenase catalyzed reactions and the overall reaction rate determined by measuring the change in absorbance at 340 nm (Chang, H. C. and Lane M. D., J. Biol. Chem. 241:2413–2420, 1966). The following modifications were made to the protocol: 2.5 μg of recombinant, human cytosolic glutathione-S-transferase (GST)-PEPCK was added to a reaction mixture at room temperature which contained 0.3 mM GTP, 0.3 mM oxaloacetate (OAA), 3 mM magnesium chloride (MgCl2), 0.075 mM manganese chloride (MnCl2), 30 mM potassium phosphates (KPO4), pH 7.6, 1 mM dithiothreitol (DTT), 0.2 mM adenosine diphosphate (ADP), 1 mM nicotinamide adenine dinucleotide, reduced form (NADH), 0.9 Units/ml each of pyruvate kinase and lactate dehydrogenase and 1 mg/ml bovine serum albumin (BSA). Test compounds were added such that final concentration of DMSO was 10%. Reactions were run for twenty minutes.
Km values for GTP and OAA were determined according to Michelis-Menton conditions as described in Comish-Bowden (Fundamentals of Enzyme Kinetics, 1995) in essentially the coupled assay conditions described above. […] Test compounds were added to reactions over a range of concentrations and IC50's were calculated from plots of inhibitor concentration versus enzyme rate. This method of determination of IC50 values is equally applicable to calculations based on PEPCK cellular assay.

Compound	IC50 [nM]
Cn1cc(S(=O)(=O)Nc2ccc(Cc3nc4c([nH]3)c(=O)n(Cc3ccccc3F)c(=O)n4CC3CC3)cc2)cn1 [Example 2, 1-Methyl-1H-pyrazole-4-sulfonic acid {4-[3-cyclopropylmethyl-1-(2-fluoro-benzyl)-2,6-dioxo-2,3,6,7-tetrahydro-1H-purin-8-ylmethyl]-phenyl}-amide]	390
O=c1c2[nH]c(Cc3ccc(NS(=O)(=O)c4cccc(F)c4)cc3)nc2n(CC2CC2)c(=O)n1Cc1ccccc1F [Example 4, N-{4-[3-Cyclopropylmethyl-1-(2-fluoro-benzyl)-2,6-dioxo-2,3,6,7-tetrahydro-1H-purin-8-ylmethyl]-phenyl}-3-fluoro-benzenesulfonamide]	2550
O=c1c2[nH]c(Cc3ccc(NS(=O)(=O)c4cnc(Cl)c(Br)c4)cc3)nc2n(CC2CC2)c(=O)n1Cc1ccccc1F [Example 5, 5-Bromo-6-chloro-pyridine-3-sulfonic acid {4-[3-cyclopropylmethyl-1-(2-fluoro-benzyl)-2,6-dioxo-2,3,6,7-tetrahydro-1H-purin-8-ylmethyl]-phenyl}-amide]	4580
CC(=O)Nc1nc(C)c(S(=O)(=O)Nc2ccc(Cc3nc4c([nH]3)c(=O)n(Cc3ccccc3F)c(=O)n4CC3CC3)cc2)s1 [Example 10, N-(5-{4-[3-Cyclopropylmethyl-1-(2-fluoro-benzyl)-2,6-dioxo-2,3,6,7-tetrahydro-1H-purin-8-ylmethyl]-phenylsulfamoyl}-4-methyl-thiazol-2-yl)-acetamide]	220
Cc1nc(N)sc1S(=O)(=O)Nc1ccc(Cc2nc3c([nH]2)c(=O)n(Cc2ccccc2F)c(=O)n3CC2CC2)cc1 [Example 11, 2-Amino-4-methyl-thiazole-5-sulfonic acid {4-[3-cyclopropylmethyl-1-(2-fluoro-benzyl)-2,6-dioxo-2,3,6,7-tetrahydro-1H-purin-8-ylmethyl]-phenyl}-amide trifluoro-acetic acid salt]	230
Cc1noc(C)c1S(=O)(=O)Nc1ccc(Cc2nc3c([nH]2)c(=O)n(Cc2ccccc2F)c(=O)n3CC2CC2)cc1 [Example 12, 3,5-Dimethyl-isoxazole-4-sulfonic acid {4-[3-cyclopropylmethyl-1-(2-fluoro-benzyl)-2,6-dioxo-2,3,6,7-tetrahydro-1H-purin-8-ylmethyl]-phenyl}-amide]	790
Cc1nc(S(=O)(=O)Nc2ccc(Cc3nc4c([nH]3)c(=O)n(Cc3ccccc3F)c(=O)n4CC3CC3)cc2)cn1C [Example 13, 1,2-Dimethyl-1H-imidazole-4-sulfonic acid {4-[3-cyclopropylmethyl-1-(2-fluoro-benzyl)-2,6-dioxo-2,3,6,7-tetrahydro-1H-purin-8-ylmethyl]-phenyl}-amide]	340
Cn1cnc(S(=O)(=O)Nc2ccc(Cc3nc4c([nH]3)c(=O)n(Cc3ccccc3F)c(=O)n4CC3CC3)cc2)c1 [Example 14, 1-Methyl-1H-imidazole-4-sulfonic acid {4-[3-cyclopropylmethyl-1-(2-fluoro-benzyl)-2,6-dioxo-2,3,6,7-tetrahydro-1H-purin-8-ylmethyl]-phenyl}-amide]	410
O=c1c2[nH]c(Cc3ccc(NS(=O)(=O)c4cccc5cccnc45)cc3)nc2n(CC2CC2)c(=O)n1Cc1ccccc1F [Example 19, Quinoline-8-sulfonic acid {4-[3-cyclopropylmethyl-1-(2-fluoro-benzyl)-2,6-dioxo-2,3,6,7-tetrahydro-1H-purin-8-ylmethyl]-phenyl}-amide]	450
CC(=O)Nc1ccc(S(=O)(=O)Nc2ccc(Cc3nc4c([nH]3)c(=O)n(Cc3ccccc3F)c(=O)n4CC3CC3)cc2)cc1 [Example 20, N-(4-{4-[3-Cyclopropylmethyl-1-(2-fluoro-benzyl)-2,6-dioxo-2,3,6,7-tetrahydro-1H-purin-8-ylmethyl]-phenylsulfamoyl}-phenyl)-acetamide]	6250
CCCCn1c(=O)n(Cc2ccccc2)c(=O)c2[nH]c(Cc3ccc(NS(=O)(=O)c4ccc(C)cc4)cc3)nc21 [Example 21, N-[4-(1-Benzyl-3-butyl-2,6-dioxo-2,3,6,7-tetrahydro-1H-purin-8-ylmethyl)-phenyl]-4-methyl-benzenesulfonamide]	7650
O=c1c2[nH]c(Cc3ccc(NS(=O)(=O)c4cccnc4)cc3)nc2n(CC2CC2)c(=O)n1Cc1ccccc1F [Example 22, Pyridine-3-sulfonic acid {4-[3-cyclopropylmethyl-1-(2-fluoro-benzyl)-2,6-dioxo-2,3,6,7-tetrahydro-1H-purin-8-ylmethyl]-phenyl}-amide trifluoro-acetic acid salt]	1950
CS(=O)(=O)Nc1ccc(Cc2nc3c([nH]2)c(=O)n(Cc2ccccc2F)c(=O)n3CC2CC2)cc1 [Example 23, N-{4-[3-Cyclopropylmethyl-1-(2-fluoro-benzyl)-2,6-dioxo-2,3,6,7-tetrahydro-1H-purin-8-ylmethyl]-phenyl}-methanesulfonamide]	1250

The remaining compounds from weak to strong by IC50, led by results:

IC50 [nM]	Compound
2050	Cc1nn(C)c(Cl)c1S(=O)(=O)N(C)c1ccc(Cc2nc3c([nH]2)c(=O)n(Cc2ccccc2F)c(=O)n3CC2CC2)cc1 [Example 18, 5-Chloro-1,3-dimethyl-1H-pyrazole-4-sulfonic acid {4-[3-cyclopropylmethyl-1-(2-fluoro-benzyl)-2,6-dioxo-2,3,6,7-tetrahydro-1H-purin-8-ylmethyl]-phenyl}-methyl-amide]
1200	COc1cccc(S(=O)(=O)Nc2ccc(Cc3nc4c([nH]3)c(=O)n(Cc3ccccc3F)c(=O)n4CC3CC3)cc2)c1 [Example 3, N-{4-[3-Cyclopropylmethyl-1-(2-fluoro-benzyl)-2,6-dioxo-2,3,6,7-tetrahydro-1H-purin-8-ylmethyl]-phenyl}-3-methoxy-benzenesulfonamide]
1100	Cc1nn(C)c(Cl)c1S(=O)(=O)Nc1cccc(Cc2nc3c([nH]2)c(=O)n(Cc2ccccc2F)c(=O)n3CC2CC2)c1 [Example 6, 5-Chloro-1,3-dimethyl-1H-pyrazole-4-sulfonic acid {3-[3-cyclopropylmethyl-1-(2-fluoro-benzyl)-2,6-dioxo-2,3,6,7-tetrahydro-1H-purin-8-ylmethyl]-phenyl}-amide]
960	CN(C)S(=O)(=O)Nc1ccc(Cc2nc3c([nH]2)c(=O)n(Cc2ccccc2F)c(=O)n3CC2CC2)cc1 [Example 17, N-{4-[3-Cyclopropylmethyl-1-(2-fluoro-benzyl)-2,6-dioxo-2,3,6,7-tetrahydro-1H-purin-8-ylmethyl]-phenyl}-N,N-dimethylsulfamide]
290	Cc1nn(C)c(Cl)c1S(=O)(=O)Nc1ccc(Cc2nc3c([nH]2)c(=O)n(Cc2ccccc2F)c(=O)n3CC2CC2)cc1 [Example 1, 5-Chloro-1,3-dimethyl-1H-pyrazole-4-sulfonic acid {4-[3-cyclopropylmethyl-1-(2-fluoro-benzyl)-2,6-dioxo-2,3,6,7-tetrahydro-1H-purin-8-ylmethyl]-phenyl}-amide]
150	Cc1nn(C)cc1S(=O)(=O)Nc1ccc(Cc2nc3c([nH]2)c(=O)n(Cc2ccccc2F)c(=O)n3CC2CC2)cc1 [Example 7, 1,3-Dimethyl-1H-pyrazole-4-sulfonic acid {4-[3-cyclopropylmethyl-1-(2-fluoro-benzyl)-2,6-dioxo-2,3,6,7-tetrahydro-1H-purin-8-ylmethyl]-phenyl}-amide]
